In patent US10464922B2, “Metalloenzyme inhibitor compounds” (NQP 1598 LTD., priority 2015, dated 2019):
In brackets after ≈: the same amount, converted by molar mass. Values belong to the compound of their own block, whether it stands above or below them.

Key:
[1] = test system: C. albicans (ATCC 90028); test: Minimum inhibitory concentration, in vitro broth microdilution assay (CLSI M27-A2); assay type: cell-based, Candida albicans; conditions: Candida albicans, ATCC90028, 48 h, ATCC 90028; about 50% growth reduction; 2 days at 36° C.; range tested 8-0.0078 μg/mL; values given as ranges; read-out: Candida albicans MIC
Procedure, shortened: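 CLSI M27-A2 broth microdilution: 11 two-fold DMSO dilutions into RPMI-1640+MOPS with 1×10^3–1×10^4 CFU/mL, 2 percent DMSO final. Incubated 2 days at 36° C; MIC from visual growth scoring, duplicates.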

[2] = test system: A. fumigatus; test: A. fumigatus MIC at 100% growth inhibition (CLSI M38-A2); assay type: cell-based, Aspergillus fumigatus; conditions: Aspergillus fumigatus, 100% growth inhibition; range tested 8-0.0078 μg/mL; values given as ranges; read-out: Aspergillus fumigatus MIC
Method: A. fumigatus MICs were determined at 100% growth inhibition following CLSI guidelines at a concentration range of 8-0.0078 μg/mL (CLSI M38-A2).

MIC [1]: 0.0078 to 0.01 µg/mL (≈ 0.0109 to 0.014 µM)
MIC [2]: 0.062 to 0.25 µg/mL (≈ 0.0867 to 0.35 µM)
Structure (SMILES): CC(C)n1ncn(-c2ccc(N3CCN(c4ccc(-c5ccc(C(F)(F)[C@](O)(Cn6cnnn6)c6ccc(F)cc6F)nc5)cc4)CC3)cc2)c1=O [Example 52, (R)-4-(4-(4-(4-(6-(2-(2,4-difluorophenyl)-1,1-difluoro-2-hydroxy-3-(1H-tetrazol-1-yl)propyl)pyridin-3-yl)phenyl)piperazin-1-yl)phenyl)-2-isopropyl-2,4-dihydro-3H-1,2,4-triazol-3-one]

MIC [1]: 0.01 to 0.1 µg/mL (≈ 0.0146 to 0.146 µM)
MIC [2]: 0.062 to 0.25 µg/mL (≈ 0.0903 to 0.364 µM)
Structure (SMILES): Cn1ncn(-c2ccc(N3CCN(c4ccc(-c5ccc(C(F)(F)[C@](O)(Cn6cnnn6)c6ccc(F)cc6F)nc5)cc4)CC3)cc2)c1=O [Example 53, (R)-4-(4-(4-(4-(6-(2-(2,4-difluorophenyl)-1,1-difluoro-2-hydroxy-3-(1H-tetrazol-1-yl)propyl)pyridin-3-yl)phenyl)piperazin-1-yl)phenyl)-2-methyl-2,4-dihydro-3H-1,2,4-triazol-3-one]

MIC [1]: 0.0078 to 0.01 µg/mL (≈ 0.0116 to 0.0149 µM)
MIC [2]: 0.25 to 1 µg/mL (≈ 0.372 to 1.49 µM)
Structure (SMILES): O=c1[nH]ncn1-c1ccc(N2CCN(c3ccc(-c4ccc(C(F)(F)[C@](O)(Cn5cnnn5)c5ccc(F)cc5F)nc4)cc3)CC2)cc1 [Example 60, (R)-4-(4-(4-(4-(6-(2-(2,4-difluorophenyl)-1,1-difluoro-2-hydroxy-3-(1H-tetrazol-1-yl)propyl)pyridin-3-yl)phenyl)piperazin-1-yl)phenyl)-2,4-dihydro-3H-1,2,4-triazol-3-one]

MIC [1]: 0.0078 to 0.01 µg/mL (≈ 0.0112 to 0.0144 µM)
MIC [2]: 0.25 to 1 µg/mL (≈ 0.36 to 1.44 µM)
Structure (SMILES): OC(c1ccc(N2CCN(c3ccc(-c4ccc(C(F)(F)[C@](O)(Cn5cnnn5)c5ccc(F)cc5F)nc4)cc3)CC2)s1)C(F)(F)F (stereo partly drawn) [Example 62, (2R)-2-(2,4-difluorophenyl)-1,1-difluoro-3-(1H-tetrazol-1-yl)-1-(5-(4-(4-(5-(2,2,2-trifluoro-1-hydroxyethyl)thiophen-2-yl)piperazin-1-yl)phenyl)pyridin-2-yl) propan-2-ol]

MIC [1]: 0.0078 to 0.01 µg/mL (≈ 0.0115 to 0.0148 µM)
MIC [2]: 0.25 to 1 µg/mL (≈ 0.369 to 1.48 µM)
Structure (SMILES): CCC(C)C(O)c1ccc(N2CCN(c3ccc(-c4ccc(C(F)(F)[C@](O)(Cn5cnnn5)c5ccc(F)cc5F)nc4)cc3)CC2)cn1 (stereo partly drawn) [Example 65, 1-(5-(4-(4-(6-((R)-2-(2,4-difluorophenyl)-1,1-difluoro-2-hydroxy-3-(1H-tetrazol-1-yl)propyl)pyridin-3-yl)phenyl)piperazin-1-yl)pyridin-2-yl)-2-methylbutan-1-ol]

MIC [1]: 0.0078 to 0.01 µg/mL (≈ 0.0105 to 0.0135 µM)
MIC [2]: 0.25 to 1 µg/mL (≈ 0.337 to 1.35 µM)
Structure (SMILES): CCC(CC)n1ncn(-c2ccc(N3CCN(c4ccc(-c5ccc(C(F)(F)[C@](O)(Cn6cnnn6)c6ccc(F)cc6F)nc5)cc4)CC3)cc2)c1=O [Example 66, (R)-4-(4-(4-(4-(6-(2-(2,4-difluorophenyl)-1,1-difluoro-2-hydroxy-3-(1H-tetrazol-1-yl)propyl)pyridin-3-yl)phenyl)piperazin-1-yl)phenyl)-2-(pentan-3-yl)-2,4-dihydro-3H-1,2,4-triazol-3-one]

MIC [1]: 0.0078 to 0.01 µg/mL (≈ 0.012 to 0.0154 µM)
MIC [2]: 0.25 to 1 µg/mL (≈ 0.386 to 1.54 µM)
Structure (SMILES): CC(C)(O)c1ccc(N2CCN(c3ccc(-c4ccc(C(F)(F)[C@](O)(Cn5cnnn5)c5ccc(F)cc5F)nc4)cc3)CC2)cc1 [Example 72, (R)-2-(2,4-difluorophenyl)-1,1-difluoro-1-(5-(4-(4-(4-(2-hydroxypropan-2-yl)phenyl)piperazin-1-yl)phenyl)pyridin-2-yl)-3-(1H-tetrazol-1-yl) propan-2-ol]

Continued, compound first:

Structure (SMILES): CCn1ncn(-c2ccc(N3CCN(c4ccc(-c5ccc(C(F)(F)[C@](O)(Cn6cnnn6)c6ccc(F)cc6F)nc5)cc4)CC3)cc2)c1=O [Example 54, (R)-4-(4-(4-(4-(6-(2-(2,4-difluorophenyl)-1,1-difluoro-2-hydroxy-3-(1H-tetrazol-1-yl)propyl)pyridin-3-yl)phenyl)piperazin-1-yl)phenyl)-2-ethyl-2,4-dihydro-3H-1,2,4-triazol-3-one]
MIC [1]: 0.01 to 0.1 µg/mL (≈ 0.0143 to 0.143 µM)
MIC [2]: 0.062 to 0.25 µg/mL (≈ 0.0885 to 0.357 µM)

Structure (SMILES): CCC(C)n1ncn(-c2ccc(N3CCN(c4ccc(-c5ccc(C(F)(F)[C@](O)(Cn6cnnn6)c6ccc(F)cc6F)nc5)cc4)CC3)cc2)c1=O (stereo partly drawn) [Example 55, 2-(sec-butyl)-4-(4-(4-(4-(6-((R)-2-(2,4-difluorophenyl)-1,1-difluoro-2-hydroxy-3-(1H-tetrazol-1-yl)propyl)pyridin-3-yl)phenyl)piperazin-1-yl)phenyl)-2,4-dihydro-3H-1,2,4-triazol-3-one]
MIC [1]: 0.01 to 0.1 µg/mL (≈ 0.0137 to 0.137 µM)
MIC [2]: 0.062 to 0.25 µg/mL (≈ 0.0851 to 0.343 µM)

Structure (SMILES): CC(O)c1ccc(N2CCN(c3ccc(-c4ccc(C(F)(F)[C@](O)(Cn5cnnn5)c5ccc(F)cc5F)nc4)cc3)CC2)cc1 (stereo partly drawn) [Example 56, (2R)-2-(2,4-difluorophenyl)-1,1-difluoro-1-(5-(4-(4-(4-(1-hydroxyethyl)phenyl)piperazin-1-yl)phenyl)pyridin-2-yl)-3-(1H-tetrazol-1-yl) propan-2-ol]
MIC [1]: 0.01 to 0.1 µg/mL (≈ 0.0158 to 0.158 µM)
MIC [2]: 0.25 to 1 µg/mL (≈ 0.395 to 1.58 µM)

Structure (SMILES): CC[C@H](NC(=O)c1ccc(N2CCN(c3ccc(-c4ccc(C(F)(F)[C@](O)(Cn5cnnn5)c5ccc(F)cc5F)nc4)cc3)CC2)cc1)[C@H](C)O [Example 57, 4-(4-(4-(6-((R)-2-(2,4-difluorophenyl)-1,1-difluoro-2-hydroxy-3-(1H-tetrazol-1-yl)propyl)pyridin-3-yl)phenyl)piperazin-1-yl)-N-((2S,3S)-2-hydroxypentan-3-yl) benzamide]
MIC [1]: 0.01 to 0.1 µg/mL (≈ 0.0139 to 0.139 µM)
MIC [2]: 0.25 to 1 µg/mL (≈ 0.348 to 1.39 µM)

Structure (SMILES): O=c1n(-c2ccc(N3CCN(c4ccc(-c5ccc(C(F)(F)[C@](O)(Cn6cnnn6)c6ccc(F)cc6F)nc5)cc4)CC3)cc2)cnn1CC(F)(F)F [Example 58, (R)-4-(4-(4-(4-(6-(2-(2,4-difluorophenyl)-1,1-difluoro-2-hydroxy-3-(1H-tetrazol-1-yl)propyl)pyridin-3-yl)phenyl)piperazin-1-yl)phenyl)-2-(2,2,2-trifluoroethyl)-2,4-dihydro-3H-1,2,4-triazol-3-one]
MIC [1]: 0.0078 to 0.01 µg/mL (≈ 0.0103 to 0.0133 µM)
MIC [2]: 0.062 to 0.25 µg/mL (≈ 0.0822 to 0.331 µM)

Structure (SMILES): CCC(C)C(O)c1ccc(N2CCN(c3ccc(-c4ccc(C(F)(F)[C@](O)(Cn5cnnn5)c5ccc(F)cc5F)nc4)cc3)CC2)cc1 (stereo partly drawn) [Example 59, 1-(4-(4-(4-(6-((R)-2-(2,4-difluorophenyl)-1,1-difluoro-2-hydroxy-3-(1H-tetrazol-1-yl)propyl)pyridin-3-yl)phenyl)piperazin-1-yl)phenyl)-2-methylbutan-1-ol]
MIC [1]: 0.0078 to 0.01 µg/mL (≈ 0.0115 to 0.0148 µM)
MIC [2]: 0.25 to 1 µg/mL (≈ 0.37 to 1.48 µM)

Structure (SMILES): CN(C)CCn1ncn(-c2ccc(N3CCN(c4ccc(-c5ccc(C(F)(F)[C@](O)(Cn6cnnn6)c6ccc(F)cc6F)nc5)cc4)CC3)cc2)c1=O [Example 61, (R)-4-(4-(4-(4-(6-(2-(2,4-difluorophenyl)-1,1-difluoro-2-hydroxy-3-(1H-tetrazol-1-yl)propyl)pyridin-3-yl)phenyl)piperazin-1-yl)phenyl)-2-(2-(dimethylamino)ethyl)-2,4-dihydro-3H-1,2,4-triazol-3-one]
MIC [1]: 0.01 to 0.1 µg/mL (≈ 0.0134 to 0.134 µM)
MIC [2]: 0.25 to 1 µg/mL (≈ 0.336 to 1.34 µM)

Structure (SMILES): CC(C)(O)Cn1ncn(-c2ccc(N3CCN(c4ccc(-c5ccc(C(F)(F)[C@](O)(Cn6cnnn6)c6ccc(F)cc6F)nc5)cc4)CC3)cc2)c1=O [Example 67, (R)-4-(4-(4-(4-(6-(2-(2,4-difluorophenyl)-1,1-difluoro-2-hydroxy-3-(1H-tetrazol-1-yl)propyl)pyridin-3-yl)phenyl)piperazin-1-yl)phenyl)-2-(2-hydroxy-2-methylpropyl)-2,4-dihydro-3H-1,2,4-triazol-3-one]
MIC [1]: 0.0078 to 0.01 µg/mL (≈ 0.0105 to 0.0134 µM)
MIC [2]: 0.062 to 0.25 µg/mL (≈ 0.0832 to 0.336 µM)

Structure (SMILES): CC(C)C(C)C(O)c1ccc(N2CCN(c3ccc(-c4ccc(C(F)(F)[C@](O)(Cn5cnnn5)c5ccc(F)cc5F)nc4)cc3)CC2)cn1 (stereo partly drawn) [Example 68, 1-(5-(4-(4-(6-((R)-2-(2,4-difluorophenyl)-1,1-difluoro-2-hydroxy-3-(1H-tetrazol-1-yl)propyl)pyridin-3-yl)phenyl)piperazin-1-yl)pyridin-2-yl)-2,3-dimethylbutan-1-ol]
MIC [1]: 0.0078 to 0.01 µg/mL (≈ 0.0113 to 0.0145 µM)
MIC [2]: 0.25 to 1 µg/mL (≈ 0.362 to 1.45 µM)

Structure (SMILES): CC(C)c1nc2cc(N3CCN(c4ccc(-c5ccc(C(F)(F)[C@](O)(Cn6cnnn6)c6ccc(F)cc6F)nc5)cc4)CC3)ccc2[nH]1 [Example 69, (R)-2-(2,4-difluorophenyl)-1,1-difluoro-1-(5-(4-(4-(2-isopropyl-1H-benzo [d]imidazol-5-yl)piperazin-1-yl)phenyl)pyridin-2-yl)-3-(1H-tetrazol-1-yl) propan-2-ol]
MIC [1]: 0.01 to 0.1 µg/mL (≈ 0.0149 to 0.149 µM)
MIC [2]: > 8 µg/mL

Structure (SMILES): CCC(c1nc2cc(N3CCN(c4ccc(-c5ccc(C(F)(F)[C@](O)(Cn6cnnn6)c6ccc(F)cc6F)nc5)cc4)CC3)ccc2[nH]1)C(C)O (stereo partly drawn) [Example 71, 3-(5-(4-(4-(6-((R)-2-(2,4-difluorophenyl)-1,1-difluoro-2-hydroxy-3-(1H-tetrazol-1-yl)propyl)pyridin-3-yl)phenyl)piperazin-1-yl)-1H-benzo [d]imidazol-2-yl)pentan-2-ol]
MIC [1]: 0.0078 to 0.01 µg/mL (≈ 0.0109 to 0.014 µM)
MIC [2]: 0.25 to 1 µg/mL (≈ 0.349 to 1.4 µM)

Structure (SMILES): N#Cc1ccc2nc(N3CCN(c4ccc(-c5ccc(C(F)(F)[C@](O)(Cn6cnnn6)c6ccc(F)cc6F)nc5)cc4)CC3)sc2c1 [Example 73, (R)-2-(4-(4-(6-(2-(2,4-difluorophenyl)-1,1-difluoro-2-hydroxy-3-(1H-tetrazol-1-yl)propyl)pyridin-3-yl)phenyl)piperazin-1-yl) benzo [d] thiazole-6-carbonitrile]
MIC [1]: 0.0078 to 0.01 µg/mL (≈ 0.0116 to 0.0149 µM)
MIC [2]: > 8 µg/mL

Structure (SMILES): N#Cc1ccc2nc(N3CCN(c4ccc(-c5ccc(C(F)(F)[C@](O)(Cn6cnnn6)c6ccc(F)cc6F)nc5)cc4)CC3)[nH]c2c1 [Example 74, (R)-2-(4-(4-(6-(2-(2,4-difluorophenyl)-1,1-difluoro-2-hydroxy-3-(1H-tetrazol-1-yl)propyl)pyridin-3-yl)phenyl)piperazin-1-yl)-1H-benzo [d] imidazole-6-carbonitrile]
MIC [1]: 0.0078 to 0.01 µg/mL (≈ 0.0119 to 0.0153 µM)
MIC [2]: > 8 µg/mL
